Data on 28 compounds can be found in patent US10072017B2, “Compounds and methods for the treatment of cystic fibrosis” (Flatley Discovery Lab, LLC, priority 2015, dated 2018).

In the experiment the target is T1, CFTR (Homo sapiens, UniProt P13569, DEL508-508).
T1 construct: Primary CF airway epithelial cells were obtained from the UNC Cystic Fibrosis Tissue Procurement and Cell Culture Core; host or cells: primary CF airway epithelial cells
In words: Equivalent current assay in Primary CF airway epithelial cells (NAUC). It is filed as cell-based. As to conditions: 24 h, normalized to VX809 (3 μM) positive control; for Nauc @ 3 μM: 3 μM test compound; for Nauc @ 10 μM: 10 μM test compound. The method, boiled down: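 NAUC is the area under the curve from forskolin (10 μM) plus VX770 (1 μM) addition to CFTR-172 (20 μM) block, after benzamil (5 μM). It is corrected for vehicle and scaled to 3 μM VX809 as 1.0 and DMSO as 0.0. Cells were exposed for 24 h to compounds with VX809; medians of ≥4 replicates were fitted sigmoidally.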

T1 sequence (P13569 with tags, fused parts or gaps DEL508-508): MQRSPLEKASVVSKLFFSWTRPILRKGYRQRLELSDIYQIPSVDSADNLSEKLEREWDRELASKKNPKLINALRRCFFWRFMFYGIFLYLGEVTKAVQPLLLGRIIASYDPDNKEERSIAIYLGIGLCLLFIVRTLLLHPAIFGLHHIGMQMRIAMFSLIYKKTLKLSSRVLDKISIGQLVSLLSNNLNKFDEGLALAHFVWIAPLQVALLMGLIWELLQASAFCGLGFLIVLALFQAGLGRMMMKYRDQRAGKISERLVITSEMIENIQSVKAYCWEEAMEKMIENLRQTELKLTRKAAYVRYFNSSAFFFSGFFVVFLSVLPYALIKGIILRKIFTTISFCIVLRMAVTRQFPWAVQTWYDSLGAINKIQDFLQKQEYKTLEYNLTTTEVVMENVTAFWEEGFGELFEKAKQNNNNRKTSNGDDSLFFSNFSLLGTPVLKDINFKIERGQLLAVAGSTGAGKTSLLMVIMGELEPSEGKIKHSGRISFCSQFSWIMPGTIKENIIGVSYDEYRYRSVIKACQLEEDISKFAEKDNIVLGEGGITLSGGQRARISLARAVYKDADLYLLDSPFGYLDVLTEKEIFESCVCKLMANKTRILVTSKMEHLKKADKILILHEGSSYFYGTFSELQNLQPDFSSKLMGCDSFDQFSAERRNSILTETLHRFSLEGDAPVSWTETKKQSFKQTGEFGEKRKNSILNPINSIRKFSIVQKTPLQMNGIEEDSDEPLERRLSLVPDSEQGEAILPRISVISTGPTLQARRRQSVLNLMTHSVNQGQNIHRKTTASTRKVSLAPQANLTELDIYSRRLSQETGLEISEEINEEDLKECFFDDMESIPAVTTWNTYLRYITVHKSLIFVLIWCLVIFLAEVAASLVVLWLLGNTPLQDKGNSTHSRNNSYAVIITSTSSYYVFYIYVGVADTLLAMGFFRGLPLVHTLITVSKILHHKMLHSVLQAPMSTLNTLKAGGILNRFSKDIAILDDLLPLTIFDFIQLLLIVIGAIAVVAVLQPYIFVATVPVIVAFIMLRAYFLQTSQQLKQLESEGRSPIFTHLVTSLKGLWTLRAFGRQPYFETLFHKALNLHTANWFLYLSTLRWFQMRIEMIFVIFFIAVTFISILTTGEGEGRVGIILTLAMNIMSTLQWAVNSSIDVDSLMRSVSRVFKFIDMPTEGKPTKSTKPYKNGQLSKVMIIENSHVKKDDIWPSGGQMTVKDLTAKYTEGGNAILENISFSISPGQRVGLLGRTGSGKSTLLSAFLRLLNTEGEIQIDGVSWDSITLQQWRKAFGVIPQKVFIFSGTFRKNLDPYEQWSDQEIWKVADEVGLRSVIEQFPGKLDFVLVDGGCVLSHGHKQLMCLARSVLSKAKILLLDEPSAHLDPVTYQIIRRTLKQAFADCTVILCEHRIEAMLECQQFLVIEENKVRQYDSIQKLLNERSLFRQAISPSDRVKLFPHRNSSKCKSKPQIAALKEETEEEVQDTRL

For `[2H]C12C(=O)N(c3cc(Cl)cc(Cl)c3)C(=O)C1([2H])C1(C(=O)Nc3c(Cl)cc(Cl)cc31)N1C[C@@H](O)CC12` (some centres unmarked) [Example 64], the “Nauc @ 3 μM” value is “+ (NAUC “+” refers to an observed NAUC <140% of positive control)” and the “Nauc @ 10 μM” value is given as “++ (NAUC “++” refers to an observed NAUC 170-140% of positive control)”.
For `O=C1C2C3C[C@H](Cl)CN3C3(C(=O)Nc4c(Cl)cc(Cl)cc43)C2C(=O)N1c1cc(Cl)cc(Cl)n1` (some centres unmarked) [Example 65], the “Nauc @ 3 μM” value is given as “++ (NAUC “++” refers to an observed NAUC 170-140% of positive control)” and the “Nauc @ 10 μM” value is listed as “+++ (NAUC “+++” refers to an observed NAUC >170% of positive control)”.
Taken in the same sequence, the figures for `COC(=O)c1cccc(N2C(=O)C3C4CCCN4C4(C(=O)Nc5c(Cl)cc(Cl)cc54)C3C2=O)c1` (centres unmarked) [Example 66] were “++ (NAUC “++” refers to an observed NAUC 170-140% of positive control)” and “++ (NAUC “++” refers to an observed NAUC 170-140% of positive control)”.
The like results for `N#C[C@H]1CC2C3C(=O)N(c4cc(Cl)cc(Cl)c4)C(=O)C3C3(C(=O)Nc4c(Cl)cc(Cl)cc43)N2C1` (some centres unmarked) [Example 68] were, in that order, “+ (NAUC “+” refers to an observed NAUC <140% of positive control)” and “+++ (NAUC “+++” refers to an observed NAUC >170% of positive control)”.
The like results for `CC(=O)O[C@H]1CC2C3C(=O)N(c4cc(Cl)cc(Cl)c4)C(=O)C3C3(C(=O)N(C(C)=O)c4c(Cl)cc(Cl)cc43)N2C1` (some centres unmarked) [Example 69] were, in that order, “+++ (NAUC “+++” refers to an observed NAUC >170% of positive control)” and “+ (NAUC “+” refers to an observed NAUC <140% of positive control)”.
In the case of `CC1CC2C3C(=O)N(c4cc(Cl)cc(Cl)c4)C(=O)C3C3(C(=O)Nc4c(Cl)cc(Cl)cc43)N2C1` (centres unmarked) [Example 71], the “Nauc @ 3 μM” value is “+ (NAUC “+” refers to an observed NAUC <140% of positive control)” and the “Nauc @ 10 μM” value was “+++ (NAUC “+++” refers to an observed NAUC >170% of positive control)”.
Taken in the same sequence, the figures for `COc1cc(Cl)cc(N2C(=O)C3C4C[C@H](O)CN4C4(C(=O)Nc5c(Cl)cc(Cl)cc54)C3C2=O)c1` (some centres unmarked) [Example 74] were “+++ (NAUC “+++” refers to an observed NAUC >170% of positive control)” and “+++ (NAUC “+++” refers to an observed NAUC >170% of positive control)”.
Taken in the same sequence, the figures for `O=C1C2C3CCCN3C3(C(=O)Nc4c(Cl)cccc43)C2C(=O)N1c1cc(Cl)cc(Cl)c1` (centres unmarked) [Example 75] were “++ (NAUC “++” refers to an observed NAUC 170-140% of positive control)” and “+ (NAUC “+” refers to an observed NAUC <140% of positive control)”.
Turning to `COc1cc(Cl)cc(N2C(=O)C3C4C[C@H](Cl)CN4C4(C(=O)Nc5c(Cl)cc(Cl)cc54)C3C2=O)c1` (some centres unmarked) [Example 76], the “Nauc @ 3 μM” value was “+++ (NAUC “+++” refers to an observed NAUC >170% of positive control)” and the “Nauc @ 10 μM” value is on record as “+++ (NAUC “+++” refers to an observed NAUC >170% of positive control)”.
Turning to `COc1c(Cl)cc(N2C(=O)C3C4CCCN4C4(C(=O)Nc5c(Cl)cc(Cl)cc54)C3C2=O)cc1Cl` (centres unmarked) [Example 77], the “Nauc @ 3 μM” value was “+++ (NAUC “+++” refers to an observed NAUC >170% of positive control)” and the “Nauc @ 10 μM” value is “+++ (NAUC “+++” refers to an observed NAUC >170% of positive control)”.
With `COc1c(Cl)cc(N2C(=O)C3C4C[C@H](F)CN4C4(C(=O)Nc5c(Cl)cc(Cl)cc54)C3C2=O)cc1Cl` (some centres unmarked) [Example 78], the “Nauc @ 3 μM” value was “+++ (NAUC “+++” refers to an observed NAUC >170% of positive control)” and the “Nauc @ 10 μM” value is “+++ (NAUC “+++” refers to an observed NAUC >170% of positive control)”.
As for `COc1c(Cl)cc(N2C(=O)C3C4C[C@H](Cl)CN4C4(C(=O)Nc5c(Cl)cc(Cl)cc54)C3C2=O)cc1Cl` (some centres unmarked) [Example 79], the “Nauc @ 3 μM” value is “+++ (NAUC “+++” refers to an observed NAUC >170% of positive control)” and the “Nauc @ 10 μM” value is given as “+++ (NAUC “+++” refers to an observed NAUC >170% of positive control)”.
Take `O=C1C2C3C[C@H](F)CN3C3(C(=O)Nc4c(Cl)cc(Cl)cc43)C2C(=O)N1c1cc(O)cc(Cl)c1` (some centres unmarked) [Example 80]: the “Nauc @ 3 μM” value is given as “++ (NAUC “++” refers to an observed NAUC 170-140% of positive control)” and the “Nauc @ 10 μM” value is “++ (NAUC “++” refers to an observed NAUC 170-140% of positive control)”.
With `O=C1C2C3C[C@H](Cl)CN3C3(C(=O)Nc4c(Cl)cc(Cl)cc43)C2C(=O)N1c1cc(O)cc(Cl)c1` (some centres unmarked) [Example 81], the “Nauc @ 3 μM” value is given as “+ (NAUC “+” refers to an observed NAUC <140% of positive control)” and the “Nauc @ 10 μM” value is “++ (NAUC “++” refers to an observed NAUC 170-140% of positive control)”.
Taken in the same sequence, the figures for `O=C1C2C3C[C@H](O)CN3C3(C(=O)Nc4c(Cl)cc(Cl)cc43)C2C(=O)N1c1cc(Cl)c(O)c(Cl)c1` (some centres unmarked) [Example 82] were “+ (NAUC “+” refers to an observed NAUC <140% of positive control)” and “++ (NAUC “++” refers to an observed NAUC 170-140% of positive control)”.
With `O=C1C2C3C[C@H](Cl)CN3C3(C(=O)Nc4c(Cl)cc(Cl)cc43)C2C(=O)N1c1cc(Cl)c(O)c(Cl)c1` (some centres unmarked) [Example 83], the “Nauc @ 3 μM” value was “++ (NAUC “++” refers to an observed NAUC 170-140% of positive control)” and the “Nauc @ 10 μM” value was “+++ (NAUC “+++” refers to an observed NAUC >170% of positive control)”.
Take `O=C1C2C3CCCN3C3(C(=O)Nc4ccc(Cl)cc43)C2C(=O)N1c1cc(Cl)cc(Cl)c1` (centres unmarked) [Example 85]: the “Nauc @ 3 μM” value is reported as “++ (NAUC “++” refers to an observed NAUC 170-140% of positive control)” and the “Nauc @ 10 μM” value is on record as “+++ (NAUC “+++” refers to an observed NAUC >170% of positive control)”.
As to `O=C1C2C(Cl)(C(=O)N1c1cc(Cl)cc(Cl)c1)C1CCCN1C21C(=O)Nc2c(Cl)cc(Cl)cc21` (centres unmarked) [Example 89], the “Nauc @ 3 μM” value was “+ (NAUC “+” refers to an observed NAUC <140% of positive control)” and the “Nauc @ 10 μM” value is recorded as “++ (NAUC “++” refers to an observed NAUC 170-140% of positive control)”.
Turning to `CC(=O)Oc1c(Cl)cc(Cl)cc1N1C(=O)C2C3CCCN3C3(C(=O)Nc4c(Cl)cc(Cl)cc43)C2C1=O` (centres unmarked) [Example 90], the “Nauc @ 3 μM” value is listed as “+ (NAUC “+” refers to an observed NAUC <140% of positive control)” and the “Nauc @ 10 μM” value is recorded as “+++ (NAUC “+++” refers to an observed NAUC >170% of positive control)”.
As for `CC(=O)Oc1c(Cl)cc(Cl)cc1N1C(=O)C2C3C[C@H](O)CN3C3(C(=O)Nc4c(Cl)cc(Cl)cc43)C2C1=O` (some centres unmarked) [Example 91], the “Nauc @ 3 μM” value was “+ (NAUC “+” refers to an observed NAUC <140% of positive control)” and the “Nauc @ 10 μM” value is “+++ (NAUC “+++” refers to an observed NAUC >170% of positive control)”.
As to `CC(=O)Oc1c(Cl)cc(Cl)cc1N1C(=O)C2C3C[C@H](F)CN3C3(C(=O)Nc4c(Cl)cc(Cl)cc43)C2C1=O` (some centres unmarked) [Example 92], the “Nauc @ 3 μM” value is “+++ (NAUC “+++” refers to an observed NAUC >170% of positive control)” and the “Nauc @ 10 μM” value is “+ (NAUC “+” refers to an observed NAUC <140% of positive control)”.
Taken in the same sequence, the figures for `CC(=O)Oc1c(Cl)cc(Cl)cc1N1C(=O)C2C3C[C@H](Cl)CN3C3(C(=O)Nc4c(Cl)cc(Cl)cc43)C2C1=O` (some centres unmarked) [Example 93] were “++ (NAUC “++” refers to an observed NAUC 170-140% of positive control)” and “+++ (NAUC “+++” refers to an observed NAUC >170% of positive control)”.
Taken in the same sequence, the figures for `O=C1C2C3C4OC4CN3C3(C(=O)Nc4c(Cl)cc(Cl)cc43)C2C(=O)N1c1cc(Cl)cc(Cl)c1` (centres unmarked) [Example 94] were “++ (NAUC “++” refers to an observed NAUC 170-140% of positive control)” and “+++ (NAUC “+++” refers to an observed NAUC >170% of positive control)”.
As to `O=C1C2C3C[C@H](F)CN3C3(C(=O)Nc4c(Cl)cc(Cl)cc43)C2C(=O)N1c1cc(Cl)cc(Cl)c1O` (some centres unmarked) [Example 95], the “Nauc @ 3 μM” value is “++ (NAUC “++” refers to an observed NAUC 170-140% of positive control)” and the “Nauc @ 10 μM” value is given as “+ (NAUC “+” refers to an observed NAUC <140% of positive control)”.
The like results for `O=C1C2C3C[C@H](Cl)CN3C3(C(=O)Nc4c(Cl)cc(Cl)cc43)C2C(=O)N1c1cc(Cl)cc(Cl)c1O` (some centres unmarked) [Example 96] were, in that order, “++ (NAUC “++” refers to an observed NAUC 170-140% of positive control)” and “+ (NAUC “+” refers to an observed NAUC <140% of positive control)”.
Regarding `COc1cccc(N2C(=O)C3C4CCCN4C4(C(=O)Nc5c(Cl)cc(Cl)cc54)C3C2=O)c1` (centres unmarked) [Example 97], the “Nauc @ 3 μM” value was “+ (NAUC “+” refers to an observed NAUC <140% of positive control)” and the “Nauc @ 10 μM” value is recorded as “++ (NAUC “++” refers to an observed NAUC 170-140% of positive control)”.
For the compound `COc1ccc2c(c1)NC(=O)C21C2C(=O)N(c3cc(Cl)cc(Cl)c3)C(=O)C2C2CCCN21` (centres unmarked) [Example 98], the “Nauc @ 3 μM” value was “+++ (NAUC “+++” refers to an observed NAUC >170% of positive control)” and the “Nauc @ 10 μM” value was “+++ (NAUC “+++” refers to an observed NAUC >170% of positive control)”.
In the case of `O=C1C2C3CC(C(F)F)CN3C3(C(=O)Nc4c(Cl)cc(Cl)cc43)C2C(=O)N1c1cc(Cl)cc(Cl)c1` (centres unmarked) [Example 99], the “Nauc @ 3 μM” value is on record as “+++ (NAUC “+++” refers to an observed NAUC >170% of positive control)” and the “Nauc @ 10 μM” value is reported as “+++ (NAUC “+++” refers to an observed NAUC >170% of positive control)”.
